Measurements from patent US6924309B2 (Children, Youth and Women's Health Service Incorporated, priority 1999, dated 2005).

How the values were obtained:
[1] = Thin film autoxidation of arachidonic acid with compounds 16-19 (HPLC)
Source text: Subsequently, the autoxidation of compounds 16-19 and their effects on the autoxidation of arachidonic acid were investigated. In these experiments, a thin film assay method was employed. For each reaction, arachidonic acid was mixed with one of the synthetic compounds 16, 17, 18 or 19 at 1:1 ratio with or without the radical initiator, azobisisobutyronitrile (AIBN). A reverse phase HPLC method was used to simultaneously measure the relative amounts of arachidonic acid and the synthetic compounds 16, 17, 18 or 19 recovered following 60 or 70 hours or 7 days of thin film autoxidation.

[2] = Stability of thia fatty acids and sulfides as thin film under oxygen (1H NMR); type: physicochemical; conditions: darkness, up to six weeks
Protocol: Compounds 110 (4.3 mg) and 106 (6 mg) were each dissolved in 5 ml of dichloromethane and added into 250 ml one-neck flasks. Compound 18 (20 mg) and compounds 19, 108, 109 and 111-112 (14-20 mg) were each dissolved in 10 ml of dichloromethane and added into 500 ml flasks. The solvent dichloromethane was then evaporated with continuous rotation of the flasks, allowing the compounds to form thin films. The flasks were flushed with oxygen, sealed and kept in darkness. The compounds in the flasks were redissolved in chloroform-d and analysed by ^1H NMR every two weeks for up to six weeks.
To examine possible reasons for this lack of antioxidative activity, the chemical stability of compounds 18 and 109 in the absence of arachidonic acid was investigated. For comparison, the stability of compounds 19, 106, 108 and 110-112 was also examined. Each compound was studied as a thin film under oxygen as described above. Samples were removed and analysed by ^1H NMR spectroscopy regularly for up to six weeks. […] This is consistent with compound 109 decomposing in the presence of arachidonic acid, but not alone.

[3] = Petri-dish thin film autoxidation of arachidonic acid with thia fatty acids and sulfides (HPLC)
Outline: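 Arachidonic acid mixed with each sulfur compound at different ratios, lauric acid as internal standard, cast as thin films on 80 mm glass Petri-dishes. Dishes kept under oxygen in a dark desiccator; residual compounds quantified after 1, 2, 3, 5 and 7 days by reverse-phase HPLC with refractive index detection.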

[4] = ratio arachidonic acid:compound 1:1, 1 day
[5] = ratio arachidonic acid:compound 1:1, 2 days

Compound: CCCCC/C=C\C/C=C\C/C=C\C/C=C\CCCCSCC(=O)O [Compound 18, (all-Z)-(eicosa-5,8,11,14-tetraenylthio) acetic acid]
- Percentage of arachidonic acid recovered in the presence of the compound ([1]; ratio 1:1, 10% AIBN 60 h): 87%
- Percentage of compound recovered (with arachidonic acid) ([1]; ratio 1:1, 10% AIBN 60 h): 57%
- Percentage of arachidonic acid recovered in the presence of the compound ([1]; ratio 1:1, no additive 70 h): 98%
- Percentage of compound recovered (with arachidonic acid) ([1]; ratio 1:1, no additive 70 h): 99%
- Percentage of arachidonic acid recovered in the presence of the compound ([1]; ratio 1:1, no additive 7 day): 68%
- Percentage of compound recovered (with arachidonic acid) ([1]; ratio 1:1, no additive 7 day): 28%
- Autoxidation of arachidonic acid in the presence of the compound (in words) ([1]; ratio 1:1, with or without AIBN): substantial degree of autoxidation
- Chemical stability in the absence of arachidonic acid [2]: decomposed after 7 days
- Antioxidant effect on autoxidation of arachidonic acid (in words) [3]: not significantly inhibited
- Arachidonic acid (%) recovered following autoxidation in the presence of the compound [3, 4]: 68%
- Compound (%) recovered following autoxidation with arachidonic acid [3, 4]: 26%
- Arachidonic acid (%) recovered following autoxidation in the presence of the compound [3, 5]: 29%
- Compound (%) recovered following autoxidation with arachidonic acid [3, 5]: 7%
- Arachidonic acid (%) recovered following autoxidation in the presence of the compound ([3]; ratio arachidonic acid:compound 1:1, 3 days): 10%
- Arachidonic acid (%) recovered following autoxidation in the presence of the compound ([3]; ratio arachidonic acid:compound 1:1, 5 days): 7%
- Arachidonic acid (%) recovered following autoxidation in the presence of the compound ([3]; ratio arachidonic acid:compound 1:1, 7 days): 5%
